The compounds below were run on HIV-1 (IIIB) in MT-4 cells (assay: MT-4 HIV assay). Settings: Human immunodeficiency virus 1, MT4, 120 h.
Assay type: cell-based
Outline: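 Antiviral activity was read by Cell Titer Glo after a 5-day, 37 °C culture of MT-4 cells pre-infected with a 1:250 dilution of HIV-1 (IIIB). Compounds were tested as threefold dilution series in complete RPMI. Controls were no drug, mock infection and 5 uM AZT.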
`COC(=O)N[C@H](C(=O)N[C@@H](Cc1ccc(C#Cc2ccc(N3CC4CCC(C3)N4C3COC3)nc2)cc1)[C@@H](O)CN(Cc1ccc(-c2ccc(F)cn2)cc1)NC(=O)[C@@H](NC(=O)OC)C(C)(C)C(F)(F)F)C(C)(C)C(F)(F)F` [Example 111, Methyl ((5S,8S,9S,14S)-16,16,16-trifluoro-11-(4-(5-fluoropyridin-2-yl)benzyl)-9-hydroxy-15,15-dimethyl-8-(4-((6-(8-(oxetan-3-yl)-3,8-diazabicyclo [3.2.1]octan-3-yl)pyridin-3-yl)ethynyl)benzyl)-3,6,13-trioxo-5-(1,1,1-trifluoro-2-methylpropan-2-yl)-2-oxa-4,7,11,12-tetraazahexadecan-14-yl)carbamate] showed an EC50 of 7.22 nM.
`COC(=O)N[C@H](C(=O)N[C@@H](Cc1ccc(C#Cc2ccc(N3CCN(C4(C)COC4)CC3)nc2)cc1)[C@@H](O)CN(Cc1c(F)cc(-c2ccn(C(F)F)n2)cc1F)NC(=O)[C@@H](NC(=O)OC)C(C)(C)C(F)(F)F)C(C)(C)C(F)(F)F` [Example 141, methyl ((5S,8S,9S,14S)-11-(4-(1-(difluoromethyl)-1H-pyrazol-3-yl)-2,6-difluorobenzyl)-16,16,16-trifluoro-9-hydroxy-15,15-dimethyl-8-(4-((6-(4-(3-methyloxetan-3-yl)piperazin-1-yl)pyridin-3-yl)ethynyl)benzyl)-3,6,13-trioxo-5-(1,1,1-trifluoro-2-methylpropan-2-yl)-2-oxa-4,7,11,12-tetraazahexadecan-14-yl)carbamate] showed an EC50 of 6.68 nM.
For `COC(=O)N[C@H](C(=O)N[C@@H](Cc1ccc(C#Cc2ccc(N3CC4CCC(C3)N4C(=O)N(C)C)nc2)cc1)[C@@H](O)CN(Cc1c(F)cc(-c2cnn(C(F)F)c2)cc1F)NC(=O)[C@@H](NC(=O)OC)C(C)(C)C(F)(F)F)C(C)(C)C(F)(F)F` [Example 17, Methyl ((5S,8S,9S,14S)-11-(4-(1-(difluoromethyl)-1H-pyrazol-4-yl)-2,6-difluorobenzyl)-8-(4-((6-(8-(dimethylcarbamoyl)-3,8-diazabicyclo[3.2.1]octan-3-yl)pyridin-3-yl)ethynyl)benzyl)-16,16,16-trifluoro-9-hydroxy-15,15-dimethyl-3,6,13-trioxo-5-(1,1,1-trifluoro-2-methylpropan-2-yl)-2-oxa-4,7,11,12-tetraazahexadecan-14-yl)carbamate], the EC50 was 7.24 nM.

Same assay, conditions: Human immunodeficiency virus 1, MT4, 120 h; HIV-1 (IIIB), MT-4 cells, 5 days, Cell Titer Glo; read-out: EC50
With `COC(=O)N[C@H](C(=O)N[C@@H](Cc1ccc(C#Cc2cnc(N3CC4CCC(C3)N4C3COC3)nc2)cc1)[C@@H](O)CN(Cc1ccc(-c2ccn(C(F)F)n2)cc1F)NC(=O)[C@@H](NC(=O)OC)C(C)(C)C(F)(F)F)C(C)(C)C(F)(F)F` [Example 118, Methyl ((5S,8S,9S,14S)-11-(4-(1-(difluoromethyl)-1H-pyrazol-3-yl)-2-fluorobenzyl)-16,16,16-trifluoro-9-hydroxy-15,15-dimethyl-8-(4-((2-(8-(oxetan-3-yl)-3,8-diazabicyclo[3.2.1]octan-3-yl)pyrimidin-5-yl)ethynyl)benzyl)-3,6,13-trioxo-5-(1,1,1-trifluoro-2-methylpropan-2-yl)-2-oxa-4,7,11,12-tetraazahexadecan-14-yl)carbamate] the EC50 was 10.6 nM.
With `COC(=O)N[C@H](C(=O)N[C@@H](Cc1ccc(-c2ccc(N3C[C@H]4C[C@@H]3CN4C3COC3)nc2)cc1)[C@@H](O)CN(Cc1c(F)cc(-c2ccn(CC(F)F)n2)cc1F)NC(=O)[C@@H](NC(=O)OC)C(C)(C)C(F)(F)F)C(C)(C)C(F)(F)F` [Example 188, methyl ((5S,8S,9S,14S)-11-(4-(1-(2,2-difluoroethyl)-1H-pyrazol-3-yl)-2,6-difluorobenzyl)-16,16,16-trifluoro-9-hydroxy-15,15-dimethyl-8-(4-(6-((1R,4R)-5-(oxetan-3-yl)-2,5-diazabicyclo[2.2.1]heptan-2-yl)pyridin-3-yl)benzyl)-3,6,13-trioxo-5-(1,1,1-trifluoro-2-methylpropan-2-yl)-2-oxa-4,7,11,12-tetraazahexadecan-14-yl)carbamate] the EC50 was 9 nM.
With `COC(=O)N[C@H](C(=O)NN(Cc1c(F)cc(-c2ncccn2)cc1F)C[C@H](O)[C@H](Cc1ccc(C#Cc2ccc(N3CCN(C4COC4)CC3)nc2)cc1)NC(=O)[C@@H](NC(=O)OC)C(C)(C)C(F)(F)F)C(C)(C)C` [Example 94, methyl ((5S,8S,9S,14S)-11-(2,6-difluoro-4-(pyrimidin-2-yl)benzyl)-9-hydroxy-15,15-dimethyl-8-(4-((6-(4-(oxetan-3-yl)piperazin-1-yl)pyridin-3-yl)ethynyl)benzyl)-3,6,13-trioxo-5-(1,1,1-trifluoro-2-methylpropan-2-yl)-2-oxa-4,7,11,12-tetraazahexadecan-14-yl)carbamate] the EC50 was 2.57 nM.
`COC(=O)N[C@H](C(=O)N[C@@H](Cc1ccc(C#Cc2ccc(N3CC4CC(C3)N4C3COC3)nc2)cc1)[C@@H](O)CN(Cc1c(F)cc(-c2ccn(CC(F)F)n2)cc1F)NC(=O)[C@@H](NC(=O)OC)C(C)(C)C(F)(F)F)C(C)(C)C(F)(F)F` [Example 41, Methyl ((5S,8S,9S,14S)-11-(4-(1-(2,2-difluoroethyl)-1H-pyrazol-3-yl)-2,6-difluorobenzyl)-16,16,16-trifluoro-9-hydroxy-15,15-dimethyl-8-(4-((6-(6-(oxetan-3-yl)-3,6-diazabicyclo[3.1.1]heptan-3-yl)pyridin-3-yl)ethynyl)benzyl)-3,6,13-trioxo-5-(1,1,1-trifluoro-2-methylpropan-2-yl)-2-oxa-4,7,11,12-tetraazahexadecan-14-yl)carbamate] gave an EC50 of 3.58 nM.
For `COC(=O)N[C@H](C(=O)N[C@@H](Cc1ccc(C#Cc2ccc(N3CC4CCC(C3)N4C3COC3)cc2)cc1)[C@@H](O)CN(Cc1c(F)cc(-c2ccn(C(F)F)n2)cc1F)NC(=O)[C@@H](NC(=O)OC)C(C)(C)C(F)(F)F)C(C)(C)C(F)(F)F` [Example 178, Methyl ((5S,8S,9S,14S)-11-(4-(1-(difluoromethyl)-1H-pyrazol-3-yl)-2,6-difluorobenzyl)-16,16,16-trifluoro-9-hydroxy-15,15-dimethyl-8-(4-((4-(8-(oxetan-3-yl)-3,8-diazabicyclo[3.2.1]octan-3-yl)phenyl)ethynyl)benzyl)-3,6,13-trioxo-5-(1,1,1-trifluoro-2-methylpropan-2-yl)-2-oxa-4,7,11,12-tetraazahexadecan-14-yl)carbamate], the EC50 was 10.3 nM.
`COC(=O)N[C@H](C(=O)N[C@@H](Cc1ccc(C#Cc2ccc(N3CC4CCC(C3)N4[C@@H]3CCOC3)nc2)cc1)[C@@H](O)CN(Cc1c(F)cc(-c2ccn(C(F)F)n2)cc1F)NC(=O)[C@@H](NC(=O)OC)C(C)(C)C(F)(F)F)C(C)(C)C(F)(F)F` [Example 143, Methyl ((5S,8S,9S,14S)-11-(4-(1-(difluoromethyl)-1H-pyrazol-3-yl)-2,6-difluorobenzyl)-16,16,16-trifluoro-9-hydroxy-15,15-dimethyl-3,6,13-trioxo-8-(4-((6-(8-((R)-tetrahydrofuran-3-yl)-3,8-diazabicyclo[3.2.1]octan-3-yl)pyridin-3-yl)ethynyl)benzyl)-5-(1,1,1-trifluoro-2-methylpropan-2-yl)-2-oxa-4,7,11,12-tetraazahexadecan-14-yl)carbamate] was tested, and the EC50 was 7.79 nM.
Work on `COC(=O)N[C@H](C(=O)N[C@@H](Cc1ccc(C#Cc2ccc(N3CC4CCC(C3)N4C3COC3)nc2)cc1)[C@@H](O)CN(Cc1ccc(-c2ccc(F)cn2)cc1F)NC(=O)[C@@H](NC(=O)OC)C(C)(C)C(F)(F)F)C(C)(C)C(F)(F)F` [Example 235, methyl ((5S,8S,9S,14S)-16,16,16-trifluoro-11-(2-fluoro-4-(5-fluoropyridin-2-yl)benzyl)-9-hydroxy-15,15-dimethyl-8-(4-((6-(8-(oxetan-3-yl)-3,8-diazabicyclo[3.2.1]octan-3-yl)pyridin-3-yl)ethynyl)benzyl)-3,6,13-trioxo-5-(1,1,1-trifluoro-2-methylpropan-2-yl)-2-oxa-4,7,11,12-tetraazahexadecan-14-yl)carbamate] yielded an EC50 of 16.7 nM.
`CC(C)([C@H](NC(=O)C1CC1)C(=O)N[C@@H](Cc1ccc(-c2cnn(C(F)F)c2)cc1)[C@@H](O)CN(Cc1c(F)cc(-c2ccn(C(F)F)n2)cc1F)NC(=O)[C@@H](NC(=O)C1CC1)C(C)(C)C(F)(F)F)C(F)(F)F` [Example 213, N—((S)-1-(2-((2S,3S)-3-((S)-2-(cyclopropanecarboxamido)-4,4,4-trifluoro-3,3-dimethylbutanamido)-4-(4-(1-(difluoromethyl)-1H-pyrazol-4-yl)phenyl)-2-hydroxybutyl)-2-(4-(1-(difluoromethyl)-1H-pyrazol-3-yl)-2,6-difluorobenzyl)hydrazinyl)-4,4,4-trifluoro-3,3-dimethyl-1-oxobutan-2-yl)cyclopropanecarboxamide] was tested, and the EC50 was 4.86 nM.
In the case of `COC(=O)N[C@H](C(=O)N[C@@H](Cc1ccc(C#Cc2ccc(N3C[C@H]4CN(C)C[C@H]4C3)nc2)cc1)[C@@H](O)CN(Cc1c(F)cc(-c2ccn(C(F)F)n2)cc1F)NC(=O)[C@@H](NC(=O)OC)C(C)(C)C(F)(F)F)C(C)(C)C(F)(F)F` [Example 164, Methyl ((5S,8S,9S,14S)-11-(4-(1-(difluoromethyl)-1H-pyrazol-3-yl)-2,6-difluorobenzyl)-16,16,16-trifluoro-9-hydroxy-15,15-dimethyl-8-(4-((6-((3 aR,6aS)-5-methylhexahydropyrrolo[3,4-c]pyrrol-2(1H)-yl)pyridin-3-yl)ethynyl)benzyl)-3,6,13-trioxo-5-(1,1,1-trifluoro-2-methylpropan-2-yl)-2-oxa-4,7,11,12-tetraazahexadecan-14-yl)carbamate], the EC50 is reported as 7.89 nM.
